The source made the active and inactive calls. The rule behind the calls is not given here. Non-standard residues stand in square brackets, D forms with d. Residues, ends and D or L forms follow the SMILES beside them. *: point of attachment. Dolaproine = CO[C@@H]([C@@H]1CCCN1)[C@@H](C)C(=O)O; Dil = CC[C@H](C)[C@H](NC)[C@@H](CC(=O)O)OC; NMe2Val = CC(C)[C@@H](C(=O)*)N(C)C; PhLac = O=C(O)[C@@H](O)Cc1ccccc1
What was measured:
Type in all cases: functional, cell-based
A10 [1] = assay: Induction of cellular microtubule disrupting activity in rat A10 cells at 1 ug/ml after 24 hrs by indirect immunofluorescence technique
KB = assay: Cytotoxicity against human KB cells by SRB assay
A10 [2] = assay: Induction of actin filament disrupting activity in rat A10 cells by rhodamine-phalloidin staining
A10 [3] = assay: Induction of cellular microtubule disrupting activity in rat A10 cells at 0.1 ug/ml after 24 hrs by indirect immunofluorescence technique
A10 [4] = assay: Effect on morphology in rat A10 cells assessed as breakdown of nucleus into micronuclei
LoVo = assay: Cytotoxicity against human LoVo cells by SRB assay

CC[C@H](C)[C@@H]([C@@H](CC(=O)N1CCC[C@H]1[C@H](OC)[C@@H](C)C(=O)O[C@@H](Cc1ccccc1)C(=O)O)OC)N(C)C(=O)[C@@H](NC(=O)[C@H](C(C)C)N(C)C)C(C)C [SYMPLOSTATIN 3] (NMe2Val-V[Dil][Dolaproine][PhLac]-OH)
Activity (A10 [1]): Active
IC50 (KB): 3.9 nM
Activity (A10 [2]): inactive
Activity (A10 [3]): Active
Activity (A10 [4]): Active
IC50 (LoVo): 10.3 nM

From ChEMBL document CHEMBL1159302, “Symplostatin 3, a new dolastatin 10 analogue from the marine cyanobacterium Symploca sp. VP452” (J Nat Prod, 2002)
